Data reported in patent US20200247800A1, “SUBSTITUTED BICYCLIC HETEROCYCLIC COMPOUNDS AS NADPH OXIDASE INHIBITORS” (Glenmark Pharmaceuticals S.A., priority 2017, published 2020).
Structures can show the parent of a compound that is named as a salt.

Biological target: T1, human NOX4 (Homo sapiens, UniProt Q9NPH5)
T1 construct: expressed in transfected cells; membrane fraction used
T1 sequence (Q9NPH5 1-578): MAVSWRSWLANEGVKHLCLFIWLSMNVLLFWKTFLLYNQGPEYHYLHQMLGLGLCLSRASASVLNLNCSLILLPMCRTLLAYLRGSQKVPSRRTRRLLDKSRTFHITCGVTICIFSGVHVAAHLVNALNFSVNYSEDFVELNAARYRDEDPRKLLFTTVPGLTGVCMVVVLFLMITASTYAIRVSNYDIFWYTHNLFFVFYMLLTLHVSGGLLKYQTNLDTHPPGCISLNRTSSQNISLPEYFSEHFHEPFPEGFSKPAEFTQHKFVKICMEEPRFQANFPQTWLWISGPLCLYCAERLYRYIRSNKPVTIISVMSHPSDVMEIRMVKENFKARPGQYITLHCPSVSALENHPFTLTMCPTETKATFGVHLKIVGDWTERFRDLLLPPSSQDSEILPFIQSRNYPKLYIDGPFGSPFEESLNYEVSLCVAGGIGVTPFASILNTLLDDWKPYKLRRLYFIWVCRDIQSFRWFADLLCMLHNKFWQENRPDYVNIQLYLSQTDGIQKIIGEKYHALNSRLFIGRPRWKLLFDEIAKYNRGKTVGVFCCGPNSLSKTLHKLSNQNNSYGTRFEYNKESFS
T1 sequence (P13498 1-195 partner): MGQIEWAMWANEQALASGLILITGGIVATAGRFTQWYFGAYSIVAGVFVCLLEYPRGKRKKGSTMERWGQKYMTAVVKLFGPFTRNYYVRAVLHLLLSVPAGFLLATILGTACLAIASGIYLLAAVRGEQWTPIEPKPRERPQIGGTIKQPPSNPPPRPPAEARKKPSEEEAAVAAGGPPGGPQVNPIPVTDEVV
Experiment: Cell free membrane based in vitro NOX4 assay: H2O2 production by membranes expressing human NOX4, measured with Amplex Red
Type: biochemical
Details: for inhibition at 1 µM: 1.0 μM compound, read-out: Percentage inhibition at 1.0 μM; for inhibition at 10 µM: 10.0 μM compound, read-out: Percentage inhibition at 10.0 μM; for IC50: class symbols
In short: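 IC50 came from concentration-response curves fitted as % of the inhibitor-free maximum. H2O2 formation was monitored for 10 min via Amplex Red/HRP fluorescence (544/590 nm) after NADPH start. Membranes from a stable hNOX4/HEK line had 20 min exposure to inhibitor beforehand at pH 7.4.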

SMILES | inhibition at 1 µM [%] | inhibition at 10 µM [%] | IC50 [nM]
Cc1nn(-c2ccccn2)c2[nH]c(-c3ccccc3Cl)c(O)c(=O)c12 [Example 30, 6-(2-Chlorophenyl)-5-hydroxy-3-methyl-1-(pyridin-2-yl)-1,7-dihydro-4H-pyrazolo[3,4-b]pyridin-4-one] | 64.1 | 77.3 | > 150
Cn1nc(C(F)(F)F)c2c(=O)c(O)c(-c3ccncc3Cl)[nH]c21 [Example 46, 6-(3-Chloropyridin-4-yl)-5-hydroxy-1-methyl-3-(trifluoromethyl)-1,7-dihydro-4H-pyrazolo[3,4-b]pyridin-4-one hydrochloride] | 73.6 | 100 | 100 to 150
CN(C)CCn1nc(C(F)(F)F)c2c(=O)c(O)c(-c3ccccc3Cl)[nH]c21 [Example 154, 6-(2-chlorophenyl)-1-(2-(dimethylamino)ethyl)-5-hydroxy-3-(trifluoromethyl)-1H-pyrazolo[3,4-b]pyridin-4(7H)-one] | 99.6 | 100 | > 150
Cn1nc(CN2CCN(C3CC3)CC2)c2c(=O)c(O)c(-c3c(F)cccc3F)[nH]c21 [Example 216, 3-((4-Cyclopropylpiperazin-1-yl)methyl)-6-(2,6-difluorophenyl)-5-hydroxy-1-methyl-1H-pyrazolo[3,4-b]pyridin-4(7H)-one] | 73.4 | 88.3 | > 150
CCc1nn(CCCN2CCOCC2)c2[nH]c(-c3ccc(F)cc3F)c(O)c(=O)c12 [Example 176, 6-(2,4-Difluorophenyl)-3-ethyl-5-hydroxy-1-(3-morpholinopropyl)-1H-pyrazolo[3,4-b]pyridin-4(7H)-one] | 81.3 |  | > 150
CCc1nn(C)c2[nH]c(-c3cc(F)ccc3F)c(O)c(=O)c12 [Example 163, 6-(2,5-Difluorophenyl)-3-ethyl-5-hydroxy-1-methyl-1H-pyrazolo[3,4-b]pyridine-4(7H)-one] | 72.8 |  | > 150
Cc1nn(C)c2c(=O)c(O)c(-c3ccccc3Cl)[nH]c12 [Example 83, 5-(2-Chlorophenyl)-6-hydroxy-1,3-dimethyl-1H-pyrazolo[4,3-b]pyridin-7(4H)-one] | 74.4 | 99 | > 150
CCc1nn(CCn2cccn2)c2[nH]c(-c3c(F)cccc3F)c(O)c(=O)c12 [Example 158, 1-(2-(1H-pyrazol-1-yl)ethyl)-6-(2,6-difluorophenyl)-3-ethyl-5-hydroxy-1H-pyrazolo[3,4-b]pyridin-4(7H)-one] | 100 | 100 | < 50
CCc1nn(CCC2CCOCC2)c2[nH]c(-c3cccc(C(F)(F)F)c3F)c(O)c(=O)c12 [Example 213, 3-Ethyl-6-(2-fluoro-3-(trifluoromethyl)phenyl)-5-hydroxy-1-(2-(tetrahydro-2H-pyran-4-yl)ethyl)-1H-pyrazolo[3,4-b]pyridin-4(7H)-one] | 86.9 | 75.6 | > 150
Cc1nn(C)c2[nH]c(-c3ccc(OC(F)(F)F)c(F)c3)c(O)c(=O)c12 [Example 16, 6-[3-Fluoro-4-(trifluoromethoxy)phenyl]-5-hydroxy-1,3-dimethyl-1,7-dihydro-4H-pyrazolo[3,4-b]pyridin-4-one] | 99.7 |  | > 150
Cc1nn(C2CC2)c2[nH]c(-c3c(F)cccc3F)c(O)c(=O)c12 [Example 87, 1-Cyclopropyl-6-(2,6-difluorophenyl)-5-hydroxy-3-methyl-1H-pyrazolo[3,4-b]pyridin-4(7H)-one] | 78.2 | 88.5 | 100 to 150
Cc1nn(CCN2CCOCC2)c2[nH]c(-c3ccccc3Cl)c(O)c(=O)c12 [Example 2, 6-(2-Chlorophenyl)-5-hydroxy-3-methyl-1-(2-morpholinoethyl)-1H-pyrazolo[3,4-b]pyridin-4(7H)-one] | 83.5 | 81.5 | 100 to 150
Cc1nn(C2CCOCC2)c2[nH]c(-c3c(F)cccc3F)c(O)c(=O)c12 [Example 128, 6-(2,6-Difluorophenyl)-5-hydroxy-3-methyl-1-(tetrahydro-2H-pyran-4-yl)-1,7-dihydro-4H-pyrazolo[3,4-b]pyridin-4-one] | 88.1 | 92.1 | 50 to 100
CCn1nc(C)c2c(=O)c(O)c(-c3ccccc3Cl)[nH]c21 [Example 26, 6-(2-Chlorophenyl)-1-ethyl-5-hydroxy-3-methyl-1,7-dihydro-4H-pyrazolo[3,4-b]pyridin-4-one] | 89.7 | 64.5 | 50 to 100
CCc1nn(C)c2[nH]c(-c3ccc(F)c(C(F)(F)F)c3)c(O)c(=O)c12 [Example 159, 3-Ethyl-6-(4-fluoro-3-(trifluoromethyl)phenyl)-5-hydroxy-1-methyl-1H-pyrazolo[3,4-b]pyridine-4(7H)-one] | 71.9 |  | > 150
CCn1nc(C)c2c(=O)c(O)c(-c3ccc(F)cc3)[nH]c21 [Example 112, 1-Ethyl-6-(4-fluorophenyl)-5-hydroxy-3-methyl-1,7-dihydro-4H-pyrazolo[3,4-b]pyridin-4-one] | 44.1 |  | 
Cc1nn(C2CC2)c2[nH]c(-c3c(F)cc(F)cc3F)c(O)c(=O)c12 [Example 94, 1-Cyclopropyl-5-hydroxy-3-methyl-6-(2,4,6-trifluorophenyl)-1H-pyrazolo[3,4-b]pyridin-4(7H)-one] | 72.5 | 80 | > 150
Cn1nc(CN2CC[C@H](F)C2)c2c(=O)c(O)c(-c3c(F)cccc3F)[nH]c21 [Example 195, (S)-6-(2,6-Difluorophenyl)-3-((3-fluoropyrrolidin-1-yl)methyl)-5-hydroxy-1-methyl-1H-pyrazolo[3,4-b]pyridin-4(7H)-one] | 97.7 | 100 | 100 to 150
Cc1nn(C)c2[nH]c(-c3ccc(C(F)(F)F)c(F)c3)c(O)c(=O)c12 [Example 22, 6-[3-Fluoro-4-(trifluoromethyl)phenyl]-5-hydroxy-1,3-dimethyl-1,7-dihydro-4H-pyrazolo[3,4-b]pyridin-4-one] | 100 | 80.9 | > 150
CCn1nc(C(F)(F)F)c2c(=O)c(O)c(-c3c(F)cccc3F)[nH]c21 [Example 100, 6-(2,6-Difluorophenyl)-1-ethyl-5-hydroxy-3-(trifluoromethyl)-1H-pyrazolo[3,4-b]pyridin-4(7H)-one] | 66.7 | 84.8 | > 150
CCn1cnc2c(=O)c(O)c(-c3c(F)cccc3F)[nH]c21 [Example 101, 5-(2,6-Difluorophenyl)-3-ethyl-6-hydroxy-3H-imidazo[4,5-b]pyridin-7(4H)-one] | 69.7 | 88.6 | > 150
Cn1nc(C2CCOCC2)c2c(=O)c(O)c(-c3c(F)cccc3F)[nH]c21 [Example 189, 6-(2,6-Difluorophenyl)-5-hydroxy-1-methyl-3-(tetrahydro-2H-pyran-4-yl)-1H-pyrazolo[3,4-b]pyridin-4(7H)-one] | 99.2 | 98.6 | < 50
O=c1c(O)c(-c2ccccc2Cl)[nH]c2c1cnn2CC(F)(F)F [Example 8, 6-(2-Chlorophenyl)-5-hydroxy-1-(2,2,2-trifluoroethyl)-1,7-dihydro-4H-pyrazolo[3,4-b]pyridin-4-one] | 87.5 | 100 | 50 to 100
Cn1nc(CC2CCOCC2)c2c(=O)c(O)c(-c3c(F)cccc3F)[nH]c21 [Example 209, 6-(2,6-Difluorophenyl)-5-hydroxy-1-methyl-3-((tetrahydro-2H-pyran-4-yl)methyl)-1H-pyrazolo[3,4-b]pyridin-4(7H)-one] | 89.5 | 89.8 | 50 to 100
CCc1nn(CC2CCOCC2)c2[nH]c(-c3ccccc3Cl)c(O)c(=O)c12 [Example 208, 6-(2-Chlorophenyl)-3-ethyl-5-hydroxy-1-((tetrahydro-2H-pyran-4-yl)methyl)-1H-pyrazolo[3,4-b]pyridin-4(7H)-one] | 82.5 | 71.6 | 100 to 150
CCc1nn(CCCN2C[C@@H](C)O[C@@H](C)C2)c2[nH]c(-c3c(F)cccc3F)c(O)c(=O)c12 [Example 206, 6-(2,6-Difluorophenyl)-1-(3-((2R,6S)-2,6-dimethylmorpholino)propyl)-3-ethyl-5-hydroxy-1H-pyrazolo[3,4-b]pyridin-4(7H)-one] | 94.6 | 91.3 | 50 to 100
